Laboratory results reported in patent US12624026B2, “Inhibitors of SARM1” (Disarm Therapeutics, Inc., priority 2018, dated 2026).

These compounds were tested against T1, SARM1 SAM-TIR (Homo sapiens, UniProt Q6SZW1) (assay: biochemical). Details: SAM-TIR lysate 5 μg/mL, 2 h pre-incubation, 5 μM NAD+, RapidFire MS of NAD+ and ADPR; read-out: SARM1 IC50.
T1 construct: a fragment of the SARM1 molecule encompassing the SAM and TIR domains; made in house; host or cells: NRK1-HEK293T cells, transiently transfected; the cleared, unpurified lysate was used as the enzyme
T1 sequence (Q6SZW1 409-724 limits assumed): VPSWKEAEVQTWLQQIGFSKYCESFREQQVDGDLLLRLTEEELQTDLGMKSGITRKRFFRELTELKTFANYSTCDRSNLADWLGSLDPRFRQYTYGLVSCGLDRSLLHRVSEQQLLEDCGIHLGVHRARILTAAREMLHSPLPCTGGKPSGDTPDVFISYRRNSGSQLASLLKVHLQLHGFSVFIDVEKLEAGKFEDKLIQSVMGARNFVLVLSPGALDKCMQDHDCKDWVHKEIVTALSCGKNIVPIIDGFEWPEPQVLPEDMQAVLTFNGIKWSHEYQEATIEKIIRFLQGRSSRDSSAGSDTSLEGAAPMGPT
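Further: inhibition of SARM1 SAM-TIR NADase activity, i.e. NAD+ cleavage, using lysate of NRK1-HEK293T cells overexpressing the SAM-TIR fragment.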

| IC50 [µM] | SMILES |
| --- | --- |
| 1 to 5 | N#Cc1c(O)nsc1Nc1ccccc1 [Example 1] |
| < 1 | N#Cc1c(O)nsc1Nc1ccccc1Cl [Example 2] |
| 1 to 5 | Cc1ccc(Nc2snc(O)c2C#N)cc1 [Example 3] |
| > 5 | CC(C)c1ccc(Nc2snc(O)c2C#N)cc1 [Example 4] |
| 1 to 5 | N#Cc1c(O)nsc1Nc1ccc(Cl)cc1 [Example 5] |
| 1 to 5 | N#Cc1c(O)nsc1Nc1ccc(Cl)c(Cl)c1 [Example 8] |
| < 1 | N#Cc1c(O)nsc1Nc1ccc(Cl)cc1Cl [Example 9] |
| 1 to 5 | N#Cc1c(O)nsc1Nc1cc(Cl)cc(Cl)c1 [Example 10] |
| 1 to 5 | N#Cc1c(O)nsc1Nc1ccccc1F [Example 11] |
| 1 to 5 | N#Cc1c(O)nsc1Nc1ccc(C(F)(F)F)cc1 [Example 13] |
| 1 to 5 | COc1ccccc1Nc1snc(O)c1C#N [Example 14] |
| < 1 | N#Cc1c(O)nsc1Nc1ccccc1OC(F)(F)F [Example 15] |
| < 1 | N#Cc1c(O)nsc1Nc1c(Cl)cccc1Cl [Example 16] |
| < 1 | N#Cc1c(O)nsc1Nc1cccc(Cl)c1Cl [Example 17] |
| 1 to 5 | NC(=O)c1c(O)nsc1Nc1cccc(Cl)c1Cl [Example 18] |
| < 1 | N#Cc1c(O)nsc1Nc1cc(Cl)ccc1Cl [Example 19] |
| > 5 | N#Cc1c(O)nsc1Nc1cccnc1 [Example 20] |
| 1 to 5 | NC(=O)c1c(O)nsc1Nc1ccccc1OC(F)(F)F [Example 21] |
| 1 to 5 | Cc1cccc(C)c1Nc1snc(O)c1C#N [Example 22] |
| < 1 | CSc1ccccc1Nc1snc(O)c1C#N [Example 23] |
| > 5 | N#Cc1c(O)nsc1NCc1ccccc1 [Example 24] |
| < 1 | CS(=O)(=O)c1ccccc1Nc1snc(O)c1C#N [Example 25] |
| < 1 | N#Cc1c(O)nsc1Nc1cccc2ccccc12 [Example 26] |
| 1 to 5 | N#Cc1c(O)nsc1Nc1ccc2ccccc2c1 [Example 28] |
| 1 to 5 | N#Cc1c(O)nsc1Nc1ccc2cccnc2c1 [Example 29] |

| IC50 [µM] | SMILES |
| --- | --- |
| > 5 | CN(c1ccccc1C(F)(F)F)c1snc(O)c1C#N [Example 30] |
| < 1 | Cn1sc(Nc2ccccc2Cl)c(C#N)c1=O [Example 32] |
| < 1 | CN(C)CCn1sc(Nc2ccccc2C(F)(F)F)c(C#N)c1=O [Example 33] |
| < 1 | N#Cc1c(Nc2cccc(Cl)c2Cl)sn(CCO)c1=O [Example 34] |
| < 1 | COc1cccc(Cl)c1Nc1sn(C)c(=O)c1C#N [Example 35] |
| < 1 | N#Cc1c(Nc2ccccc2C(F)(F)F)sn(CCC(N)=O)c1=O [Example 36] |
| < 1 | Cn1sc(Nc2cccc(Cl)c2Cl)c(C#N)c1=O [Example 37] |
| < 1 | N#Cc1c(Nc2ccccc2C(F)(F)F)sn(CC(N)=O)c1=O [Example 38] |
| < 1 | N#Cc1c(Nc2ccccc2C(F)(F)F)sn(CCO)c1=O [Example 39] |
| < 1 | Cn1sc(Nc2c(Cl)ccc3c2CCO3)c(C#N)c1=O [Example 40] |
| < 1 | Cn1sc(Nc2ccc(Cl)c3c2CCO3)c(C#N)c1=O [Example 41] |
| < 1 | Cc1ccc2c(Nc3sn(C)c(=O)c3C#N)c(Cl)ccc2n1 [Example 42] |
| < 1 | CC(O)Cn1sc(Nc2ccccc2C(F)(F)F)c(C#N)c1=O (centres unmarked) [Example 43] |
| < 1 | C[C@@H](CO)n1sc(Nc2ccccc2C(F)(F)F)c(C#N)c1=O [Example 44] |
| < 1 | Cn1sc(Nc2c(F)cccc2Cl)c(C#N)c1=O [Example 45] |
| < 1 | Cn1sc(Nc2c(Cl)cccc2Cl)c(C#N)c1=O [Example 46] |
| < 1 | C[C@H](CO)n1sc(Nc2ccccc2C(F)(F)F)c(C#N)c1=O [Example 47] |
| < 1 | Cn1sc(Nc2c(Cl)ccc3c2cnn3C)c(C#N)c1=O [Example 48] |
| < 1 | N#Cc1c(Nc2cccc(Br)c2C(F)(F)F)s[nH]c1=O [Example 49] |
| < 1 | Cn1sc(Nc2c(Br)ccc3ncccc23)c(C#N)c1=O [Example 50] |
| < 1 | COCCn1sc(Nc2ccccc2C(F)(F)F)c(C#N)c1=O [Example 51] |
| < 1 | Cn1sc(Nc2c(Cl)ccc3ncccc23)c(C#N)c1=O [Example 52] |
| < 1 | Cn1sc(Nc2cccc3ncccc23)c(C#N)c1=O [Example 53] |
| < 1 | C[C@@H](c1ccccc1)n1sc(Nc2cccc(Cl)c2Cl)c(C#N)c1=O [Example 54] |
| < 1 | CS(=O)(=O)CCn1sc(Nc2ccccc2C(F)(F)F)c(C#N)c1=O [Example 55] |

| IC50 [µM] | SMILES |
| --- | --- |
| < 1 | Cn1ccc(Cn2sc(Nc3ccccc3C(F)(F)F)c(C#N)c2=O)n1 [Example 56] |
| < 1 | COCCn1sc(Nc2c(OC)cccc2C(F)(F)F)c(C#N)c1=O [Example 57] |
| < 1 | COCCn1sc(Nc2cccc(Cl)c2Cl)c(C#N)c1=O [Example 58] |
| < 1 | COC[C@H](C)n1sc(Nc2ccccc2C(F)(F)F)c(C#N)c1=O [Example 59] |
| < 1 | N#Cc1c(Nc2ccccc2C(F)(F)F)sn(C[C@@H]2CCOC2)c1=O [Example 60] |
| < 1 | N#Cc1c(Nc2ccccc2C(F)(F)F)sn(CC2(O)CC2)c1=O [Example 61] |
| < 1 | N#Cc1c(Nc2ccccc2C(F)(F)F)sn(Cc2ccccn2)c1=O [Example 62] |
| < 1 | N#Cc1c(Nc2ccccc2C(F)(F)F)sn(C[C@H]2CCOC2)c1=O [Example 63] |
| < 1 | CC(C)(O)Cn1sc(Nc2ccccc2C(F)(F)F)c(C#N)c1=O [Example 64] |
| < 1 | CCn1sc(Nc2ccccc2C(F)(F)F)c(C#N)c1=O [Example 65] |
| < 1 | Cn1sc(Nc2c(Cl)ccc3c2CCCO3)c(C#N)c1=O [Example 66] |
| < 1 | CC(C)(O)Cn1sc(Nc2c(F)cccc2Cl)c(C#N)c1=O [Example 67] |
| < 1 | N#Cc1c(Nc2c(Cl)cccc2Cl)sn(CCO)c1=O [Example 68] |
| < 1 | Cn1sc(Nc2ccc(Cl)c3c2cnn3C)c(C#N)c1=O [Example 69] |
| < 1 | COCCn1sc(Nc2ccc(Cl)cc2C(F)(F)F)c(C#N)c1=O [Example 70] |
| < 1 | COCCCn1sc(Nc2ccccc2C(F)(F)F)c(C#N)c1=O [Example 71] |
| < 1 | Cn1sc(Nc2c(Cl)ccc3c2CCN3)c(C#N)c1=O [Example 72] |
| < 1 | COCCn1sc(Nc2c(Cl)cccc2Cl)c(C#N)c1=O [Example 73] |
| < 1 | COCC(C)n1sc(Nc2ccccc2C(F)(F)F)c(C#N)c1=O (centres unmarked) [Example 74] |
| < 1 | Cn1sc(Nc2cccc3c2CCCO3)c(C#N)c1=O [Example 75] |
| < 1 | N#Cc1c(Nc2ccccc2C(F)(F)F)sn(CC2CCCO2)c1=O (centres unmarked) [Example 76] |
| < 1 | Cn1sc(Nc2c(Cl)ccc3c2CCCN3)c(C#N)c1=O [Example 77] |
| < 1 | N#Cc1c(Nc2ccccc2C(F)(F)F)sn(CCC(=O)N2CCC(N3CCC3)CC2)c1=O [Example 78] |
| < 1 | N#Cc1c(Nc2c(Cl)cccc2Cl)sn(CCC(N)=O)c1=O [Example 79] |
| < 1 | N#Cc1c(Nc2ccccc2C(F)(F)F)sn(Cc2ccccc2)c1=O [Example 80] |

| IC50 [µM] | SMILES |
| --- | --- |
| < 1 | Cc1ccc2ncccc2c1Nc1sn(C)c(=O)c1C#N [Example 81] |
| < 1 | COc1ccc2nc(C)ccc2c1Nc1sn(C)c(=O)c1C#N [Example 82] |
| < 1 | N#Cc1c(Nc2ccccc2C(F)(F)F)sn(CCc2ccccc2)c1=O [Example 83] |
| < 1 | COc1ccc2ncccc2c1Nc1sn(C)c(=O)c1C#N [Example 84] |
| < 1 | Cn1sc(Nc2ccc(Cl)c3c2CCCO3)c(C#N)c1=O [Example 85] |
| < 1 | COCCn1sc(Nc2c(Cl)ccc3ncccc23)c(C#N)c1=O [Example 86] |
| < 1 | CCCn1sc(Nc2ccccc2C(F)(F)F)c(C#N)c1=O [Example 87] |
| < 1 | COc1ccc(Cn2sc(Nc3ccccc3)c(C#N)c2=O)cc1 [Example 88] |
| < 1 | C[C@H](c1ccccc1)n1sc(Nc2ccccc2C(F)(F)F)c(C#N)c1=O [Example 89] |
| < 1 | COCCn1sc(Nc2c(Cl)cccc2C(F)(F)F)c(C#N)c1=O [Example 90] |
| < 1 | Cc1ccc2c(Nc3sn(C)c(=O)c3C#N)cccc2n1 [Example 91] |
| < 1 | N#Cc1c(Nc2ccccc2C(F)(F)F)sn(Cc2n[nH]c3ccccc23)c1=O [Example 92] |
| < 1 | COc1cccc(C)c1Nc1sn(C)c(=O)c1C#N [Example 93] |
| < 1 | C[C@@H](c1ccccc1)n1sc(Nc2ccccc2C(F)(F)F)c(C#N)c1=O [Example 94] |
| < 1 | COCCn1sc(Nc2cccc3ncccc23)c(C#N)c1=O [Example 95] |
| < 1 | COC(C)(C)Cn1sc(Nc2c(Cl)cccc2Cl)c(C#N)c1=O [Example 96] |
| < 1 | COC(C)(C)Cn1sc(Nc2ccccc2C(F)(F)F)c(C#N)c1=O [Example 97] |
| < 1 | COCCn1sc(Nc2ccccc2C(C)(C)C)c(C#N)c1=O [Example 98] |
| < 1 | CN(C)CCn1sc(Nc2c(Cl)cccc2Cl)c(C#N)c1=O [Example 99] |
| < 1 | COc1cccc(Cl)c1Nc1s[nH]c(=O)c1C#N [Example 100] |
| < 1 | CC(C)(O)Cn1sc(Nc2c(Cl)cccc2Cl)c(C#N)c1=O [Example 101] |
| < 1 | N#Cc1c(Nc2c(F)cccc2Cl)s[nH]c1=O [Example 102] |
| < 1 | COc1cccc(C(F)(F)F)c1Nc1s[nH]c(=O)c1C#N [Example 103] |
